What all share (assay): growth of human tumour cells (NCI), 48 h
The test system of test [1] is KM12 colon.
Test [2] deals with SNB-19 CNS.
The test system of test [3] is SF-268 CNS.
The test system of test [4] is CAKI-1 renal.
Test [5] concerns OVCAR-5 ovarian.
Test [6] has as its system NCI-H226 lung.
The subject of test [7] is T-47D breast.
The subject of test [8] is RXF 393 renal.
Test [9] concerns SW-620 colon.
For test [10], the system named is SR leukemia.
The subject of test [11] is OVCAR-3 ovarian.
Test [12] deals with HS 578T breast.
Test [13] has as its system NCI-H23 lung.
Test [14] deals with ACHN renal.
For test [15], the system named is SK-MEL-5 melanoma.
The subject of test [16] is PC-3 prostate.
Test [17] has as its system BT-549 breast.
The test system of test [18] is M14 melanoma.
Test [19] relates to MDA-N.

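Grown in 96-well plates, cells were treated for 48 hours with each compound at five concentrations. Insufficient inhibition: endpoint recorded as highest concentration tested. TGI denotes the concentration required for complete inhibition of growth.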 *1 amine or outer side, *2 acyl side, *3 side chain or, on linkers, in order; H or OH if unused. Where a SMILES comes first, the peptide text is derived from it. [ ]: non-standard residue; d: D form. The star is where a group is joined. ξ: configuration not given here. X27 = O=C([C@H]1CCC[C@H]1N[*:1])[*:2]; ξW = NC(Cc1c[nH]c2ccccc12)C(=O)O; ξF = NC(Cc1ccccc1)C(=O)O; Boc = CC(C)(C)OC(=O)*; ξK = NCCCCC(N)C(=O)O; ξT = CC(O)C(N)C(=O)O; tBu = CC(C)(C)*

The record followed here is PubChem BioAssay (NCI).

Regarding `COc1cc2c(cc1C[C@H]1[C@@H]3C[C@H]4c5c(c6ccccc6n5C)C[C@@H]([C@@H]3CO[C@]1(C)OC(C)=O)N4C)c1c(n2C)C2C[C@H]3C(C(C)=O)=COC[C@H]3[C@H](C1)N2C`, the TGI in test [1] is 5.27 µM; in [2] it was above 25 µM; in test [3], 24 µM; in test [4], 9.06 µM; in test [5], 11.6 µM; in [6], 21.7 µM. Also, the TGI in test [7] came out at 17.2 µM; in [8] it was 6.04 µM; in [9] it was 11.3 µM; in test [10] it was 7.62 µM; in test [11] it was 5.98 µM; in [12], 13.3 µM. Further, the TGI in test [13] was above 25 µM; in [14], 10.1 µM; in test [15], 6.79 µM; in [16], 2.7 µM; in [17], 13.3 µM; in test [18], 6.24 µM.

For `Cc1ccc2c(=O)cc(Cc3cccs3)[nH]c2n1`, the TGI in [1], in [2], in test [3], in [4], in test [5] and in test [6] was above 100 µM throughout. Also, the TGI in [7], in [8], in [9], in test [11], in [12] and in test [13] was above 100 µM each time. For the same compound, the TGI in test [15], in test [16], in [17] and in test [18] was above 100 µM each time.

On to `CCN1CCCC(C#N)(c2ccccc2)CC1` (configuration not stated), for which the TGI in test [1], in test [2], in test [3], in test [19], in test [4] and in test [5] was above 100 µM throughout. In addition, the TGI in test [7], in [8], in [9], in [10], in test [12] and in test [13] was above 100 µM in each case. Also, the TGI in test [14], in test [15], in test [16] and in test [18] was above 100 µM in each case.

Take `Oc1cc(O)c2ccc(-c3ccc(O)c(O)c3)[o+]c2c1`: the TGI in test [1], in test [2], in test [3], in test [19], in [4] and in [5] was above 100 µM throughout. For the same compound, the TGI in [6], in test [8], in [9], in test [11], in test [12] and in [13] was above 100 µM in each case. Moreover, the TGI in test [14], in [16], in test [17] and in test [18] was above 100 µM in each case.

Take `NC(=O)C(=O)c1ncn(Cc2ccccc2)c1N`: the TGI in [1], in test [2], in test [3], in test [19], in test [4] and in [5] was above 100 µM in each case. Besides, the TGI in test [6], in test [7], in test [8], in [9], in [10] and in test [11] was above 100 µM throughout. Besides, the TGI in test [12], in test [13], in test [14], in [15], in [16] and in test [18] was above 100 µM in each case.

Take `CC(OC(C)(C)C)C1NC(=O)C(CCCCNC(=O)OC(C)(C)C)NC(=O)C(Cc2c[nH]c3ccccc23)NC(=O)C(Cc2ccccc2)NC(=O)[C@H]2CCC[C@H]2NC(=O)C(Cc2ccccc2)NC1=O` (some centres not stated) (cyclo([X27][ξF][ξW][ξK](Boc)[ξT](tBu)[ξF])): the TGI in test [1] was above 100 µM; in [2], 69.6 µM; in test [3] it was above 100 µM; in test [19], above 100 µM; in [4], above 100 µM; in test [5], 59.8 µM. Also, the TGI in test [6], in test [7], in [8], in [9], in [10] and in test [11] was above 100 µM in each case. Besides, the TGI in test [12] was 28.4 µM; in [13], above 100 µM; in [14], above 100 µM; in [15] it was 16.1 µM; in test [16] it was above 100 µM; in test [18] it was above 100 µM.

As for `Clc1ccc(Nc2nnc(CCCCCCCCc3nnc(Nc4ccc(Cl)cc4)o3)o2)cc1`, the TGI in [1] was 99.2 µM; in test [2], above 100 µM; in test [19] it was above 100 µM; in test [4] it was above 100 µM; in [5], above 100 µM; in test [6], above 100 µM. The TGI in test [9] was above 100 µM; in [13], 90.6 µM; in test [14] it was above 100 µM; in test [15], 64.2 µM; in test [16], above 100 µM; in [17] it was above 100 µM. In addition, in [18], the TGI is above 100 µM.

On to `CC(=O)OC(CN1CCN(c2ccccn2)CC1)Cn1sc2nc(C)cc(C)c2c1=O` (configuration not stated), for which the TGI in test [1] was 49 µM; in test [2], above 100 µM; in test [3], 32.9 µM; in [4], 37.2 µM; in [5], 31.5 µM; in [6], above 100 µM. Moreover, the TGI in [7] was 76.8 µM; in test [8], 35.6 µM; in [9], above 100 µM; in [10], above 100 µM; in test [11] it was 50.7 µM; in [12], 44.8 µM. In addition, the TGI was determined as 43 µM in test [13]; 30 µM in test [14]; 26.1 µM in test [15]; 31.3 µM in test [16]; 33.2 µM in [17]; 31.4 µM in [18].

In the case of `Clc1c(Cl)c(Cl)c2c(nnn2C2CCCO2)c1Cl` (configuration not stated), the TGI in [3] is above 100 µM; in test [19], 74.3 µM; in test [4] it was 74.9 µM; in test [5] it was above 100 µM; in test [6] it was above 100 µM; in test [7] it was above 100 µM. Also, the TGI was above 100 µM in test [8]; 91.4 µM in [10]; above 100 µM in test [11]; 59 µM in test [12]; 49.3 µM in test [13]; above 100 µM in test [15]. Also, the TGI in test [16] and in test [18] was above 100 µM each time.

Consider `CCN(CC)Cc1cc(Nc2c3ccccc3nc3c2[nH]c2ccccc23)cc(CN(CC)CC)c1O`, for which the TGI in test [1] worked out at 10.6 µM; in [2], 5.75 µM; in test [3] it was 4.73 µM; in test [19], 2.07 µM; in test [4] it was 4.26 µM; in [5] it was 9.21 µM. Besides, the TGI in test [6] stood at 6.01 µM; in test [8], 1.25 µM; in test [9] it was 2.47 µM; in test [12], 4.71 µM; in [13], 2.62 µM; in test [14], 3.48 µM. Besides, the TGI stood at 2.95 µM in test [15], 2.75 µM in [16], 2.83 µM in test [17] and 1.33 µM in test [18].

`FC(F)(F)c1ccc(Cc2nc3cc4ccccc4cc3[nH]2)cc1`: the TGI in test [1], in test [2], in [3], in test [4], in test [5] and in test [6] was above 100 µM in each case. Further, the TGI in test [7], in test [8], in test [9], in [11], in test [12] and in [13] was above 100 µM throughout. The TGI in test [14], in test [15], in test [16], in test [17] and in test [18] was above 100 µM throughout.

Take `CC(=O)OCC(C)C1=C(OC(C)=O)C(=O)C2(C)C/C=C(/C)CC/C=C(\C)CCC(OC(C)=O)C(C)CCC12` (configuration not stated): the TGI in test [1] was determined as 36.9 µM; in test [2], 43.9 µM; in [3] it was 35 µM; in test [19] it was 33.5 µM; in [5] it was 25.4 µM; in [7], 89 µM. The TGI in test [9] was 40.7 µM; in [10] it was 40.3 µM; in test [12], 60 µM; in [14] it was 39.3 µM; in test [15], 30.2 µM; in test [16], 30.2 µM. This compound also yielded a TGI in test [18] of 34.2 µM.

For the compound `CC(=O)C1C(=O)C(=O)N(c2ccccc2)C1=O` (configuration not stated), the TGI in test [1], in test [2], in test [3], in test [19], in test [4] and in test [5] was above 100 µM in each case. The TGI in test [6], in test [8], in [9], in test [11], in test [12] and in test [13] was above 100 µM each time. The TGI in test [14], in [15], in test [16], in [17] and in test [18] was above 100 µM each time.

With `COc1ccc(CC2C3=C(CCN2C(=O)C2CCC2)CC2(CC3)OCCO2)cc1O` (configuration not stated), the TGI in test [1] was above 100 µM; in test [2] it was above 100 µM; in test [3], above 100 µM; in test [19], 31.6 µM; in test [4], above 100 µM; in test [5], above 100 µM. For the same compound, the TGI was above 100 µM in test [6]; above 100 µM in test [7]; 37.5 µM in [8]; above 100 µM in test [9]; above 100 µM in [10]; 35.4 µM in test [11]. The TGI was 73.4 µM in test [12]; 44.6 µM in test [13]; above 100 µM in test [14]; above 100 µM in test [15]; above 100 µM in [16]; 63.1 µM in [18].

For the compound `CCOP(=O)(OCC)C(C)(C)N(C)/C(F)=N/C(F)(F)F`, the TGI in [1], in test [3], in [19], in test [4], in [5] and in test [6] was above 100 µM throughout. The TGI in test [7], in [9], in test [10], in test [11], in [12] and in test [13] was above 100 µM throughout. The TGI in test [14], in test [15], in test [16] and in [18] was above 100 µM in each case.

On to `O=C(NC(Cl)(C(F)(F)F)C(F)(F)F)c1ccc(F)cc1`, for which the TGI in test [1], in test [2], in test [3], in test [19], in [4] and in test [5] was above 100 µM each time. For the same compound, the TGI in test [6], in test [7], in test [8], in [9], in [10] and in test [11] was above 100 µM in each case. For the same compound, the TGI in test [12], in test [13], in [14], in test [15], in test [16] and in [18] was above 100 µM each time.
